# Reference: patent US20180343865A1, “HERBICIDAL COMPOSITIONS COMPRISING ISOXAZOLO[5,4-B]PYRIDINES” (BASF SE, priority 2015, published 2018)
# What was measured:
# Format in all cases: in vivo
# Amaranthus retroflexus = assay: Greenhouse postemergence herbicidal activity on AMARE, 20 DAT; conditions: AMARE, postemergence
# Method: (§1) For the post emergence treatment, the plants were first grown to the 2 leaf station (GS 12) and applied at GS 12-19 depending on the species. The herbicidal compositions were suspended or emulsified in water as distribution medium and sprayed using finely distributing nozzles.
# (§2) The plants have been cultivated due to their individual requirements at 10 to 25° C. and. 20 to 35° C. The plants were irrigated due to their necessity.
# (§3) The respective stated components A), were formulated as a 5% by weight strength emulsion concentrate containing wettol EM 31 20% and Cyclohexanone 80%. The respective stated components B), were formulated as either emulsifiable concentrates (EC), soluble liquids (SL), suspension concentrates (SC) or soluble granules (SG) as indicated in the table below. Component A, component B and the solvent system are introduced into the spray liquor used for applying the active compound. In the examples, the solvent used was water containing 1% Dash (Agnique ME 181 37.5%, Lutensit A-EP 22.5%, and Oleic Acid 5%) and 2% ammonium suflate.
# (§4) In the following experiments, the herbicidal activity for the individual herbicide compounds (solo and mixture applications), the herbicidal succession was assessed 20 days after treatment (DAT). The evaluation for the damage on undesired weeds caused by the chemical compositions was carried out using a scale from 0 to 100%, compared to the untreated control plants. Here, 0 means no damage and 100 means complete destruction of the plants. The plants used in the greenhouse experiments belonged to the following species:
# (§5) The value E, which corresponds to the effect (in %) that is to be expected if the activity of the individual compounds is additive, was calculated using the method of S. R. Colby (1967) “Calculating synergistic and antagonistic responses of herbicide combinations”, Weeds 15, p. 22 ff. Colby calculation for 2 way mixtures:
# (§6) where: • X=effect in percent using herbicide A at an application rate a; • Y=effect in percent using herbicide B at an application rate b; • E=expected effect (in %) of A+B at application rates a+b
# (§7) If the value observed in this manner is higher than the value E calculated according to Colby, a synergistic effect is present.
# Abutilon theoprasti = assay: Greenhouse postemergence herbicidal activity on ABUTH, 20 DAT
# Method: as §1, §2, §3, §4, §5, §6, §7
# Amaranthus palmeri = assay: Greenhouse postemergence herbicidal activity on AMAPA, 20 DAT; conditions: Amaranthus palmeri, post-emergence, 480 h
# Method: as §1, §2, §3, §4, §5, §6, §7
# Kochia scoparia = assay: Greenhouse postemergence herbicidal activity on KCHSC, 20 DAT
# Method: as §1, §2, §3, §4, §5, §6, §7
# Chenopodium album = assay: Greenhouse postemergence herbicidal activity on CHEAL, 20 DAT
# Method: as §1, §2, §3, §4, §5, §6, §7
# Sinapis arvensis = assay: Greenhouse postemergence herbicidal activity on SINAR, 20 DAT; conditions: Mutarda arvensis, post-emergence, 480 h, read-out: % activity, solo bromoxynil
# Method: as §1, §2, §3, §4, §5, §6, §7
# Stellaria media = assay: Greenhouse postemergence herbicidal activity on STEME, 20 DAT; conditions: Stellaria media, post-emergence, 480 h, STEME, postemergence, 20 DAT, read-out: % activity, solo bromoxynil
# Method: as §1, §2, §3, §4, §5, §6, §7
# Galium aparine = assay: Greenhouse postemergence herbicidal activity on GALAP, 20 DAT
# Method: as §1, §2, §3, §4, §5, §6, §7
# Ipomoea hederacea = assay: Greenhouse postemergence herbicidal activity on IPOHE, 20 DAT
# Method: as §1, §2, §3, §4, §5, §6, §7
# Polygonum convolvulus = assay: Greenhouse postemergence herbicidal activity on POLCO, 20 DAT; conditions: POLCO, postemergence
# Method: as §1, §2, §3, §4, §5, §6, §7
smiles,measurement,setting,value
"COCC(C)N(C(=O)CCl)c1c(C)csc1C (stereo not shown) [DMTA, Dimethenamid]",inhibition at 175 g/ha,"Amaranthus retroflexus; Amaranthus retroflexus, post-emergence, 480 h, 175 gai/ha, 20 DAT, read-out: % activity, solo DMTA",35%
same,inhibition at 350 g/ha,"Amaranthus retroflexus; Amaranthus retroflexus, post-emergence, 480 h, 350 gai/ha, 20 DAT, read-out: % activity, solo DMTA",45%
same,inhibition at 175 g/ha,"Abutilon theoprasti; Abutilon, post-emergence, 480 h, 175 gai/ha, 20 DAT, read-out: % activity, solo DMTA",0%
same,inhibition at 350 g/ha,"Abutilon theoprasti; Abutilon, post-emergence, 480 h, 350 gai/ha, 20 DAT, read-out: % activity, solo DMTA",0%
same,inhibition at 175 g/ha,"Amaranthus palmeri; 175 gai/ha, read-out: % activity, solo DMTA",10%
same,inhibition at 350 g/ha,"Amaranthus palmeri; 350 gai/ha, read-out: % activity, solo DMTA",20%
same,"% activity, solo DMTA","Kochia scoparia; 350 gai/ha, 20 DAT",5%
same,inhibition at 175 g/ha,"Kochia scoparia; Bassia scoparia, post-emergence, 480 h, 175 gai/ha, 20 DAT, read-out: % activity, solo DMTA",0%
same,inhibition at 350 g/ha,"Chenopodium album; Chenopodium album, post-emergence, 480 h, 350 gai/ha, 20 DAT, read-out: % activity, solo DMTA",28%
N#Cc1cc(Br)c(O)c(Br)c1 [bromoxynil],inhibition at 10.5 g/ha,"Amaranthus retroflexus; Amaranthus retroflexus, post-emergence, 480 h, 10.5 gai/ha, 20 DAT, read-out: % activity, solo bromoxynil",28%
same,inhibition at 125 g/ha,"Amaranthus retroflexus; Amaranthus retroflexus, post-emergence, 480 h, 125 gai/ha, 20 DAT, read-out: % activity, solo bromoxynil",80%
same,inhibition at 250 g/ha,"Amaranthus retroflexus; Amaranthus retroflexus, post-emergence, 480 h, 250 gai/ha, 20 DAT, read-out: % activity, solo bromoxynil",92%
same,inhibition at 10.5 g/ha,"Abutilon theoprasti; Abutilon, post-emergence, 480 h, 10.5 gai/ha, 20 DAT, read-out: % activity, solo bromoxynil",68%
same,inhibition at 62.5 g/ha,"Abutilon theoprasti; Abutilon, post-emergence, 480 h, 62.5 gai/ha, 20 DAT, read-out: % activity, solo bromoxynil",73%
same,inhibition at 125 g/ha,"Abutilon theoprasti; Abutilon, post-emergence, 480 h, 125 gai/ha, 20 DAT, read-out: % activity, solo bromoxynil",90%
same,inhibition at 250 g/ha,"Abutilon theoprasti; Abutilon, post-emergence, 480 h, 250 gai/ha, 20 DAT, read-out: % activity, solo bromoxynil",90%
same,inhibition at 62.5 g/ha,Sinapis arvensis; 62.5 gai/ha,70%
same,inhibition at 250 g/ha,Sinapis arvensis; 250 gai/ha,95%
same,inhibition at 10.5 g/ha,"Amaranthus palmeri; 10.5 gai/ha, read-out: % activity, solo bromoxynil",58%
same,inhibition at 62.5 g/ha,"Amaranthus palmeri; 62.5 gai/ha, read-out: % activity, solo bromoxynil",83%
same,inhibition at 62.5 g/ha,Stellaria media; 62.5 gai/ha,0%
same,inhibition at 125 g/ha,Stellaria media; 125 gai/ha,0%
same,inhibition at 250 g/ha,Stellaria media; 250 gai/ha,0%
same,inhibition at 62.5 g/ha,"Galium aparine; Galium aparine, post-emergence, 480 h, 62.5 gai/ha, 20 DAT, read-out: % activity, solo bromoxynil",89%
same,inhibition at 125 g/ha,"Galium aparine; Galium aparine, post-emergence, 480 h, 125 gai/ha, 20 DAT, read-out: % activity, solo bromoxynil",70%
same,inhibition at 62.5 g/ha,"Kochia scoparia; Bassia scoparia, post-emergence, 480 h, 62.5 gai/ha, 20 DAT, read-out: % activity, solo bromoxynil",50%
same,inhibition at 10.5 g/ha,"Chenopodium album; Chenopodium album, post-emergence, 480 h, 10.5 gai/ha, 20 DAT, read-out: % activity, solo bromoxynil",53%
same,inhibition at 21 g/ha,"Chenopodium album; Chenopodium album, post-emergence, 480 h, 21 gai/ha, 20 DAT, read-out: % activity, solo bromoxynil",80%
same,inhibition at 62.5 g/ha,"Chenopodium album; Chenopodium album, post-emergence, 480 h, 62.5 gai/ha, 20 DAT, read-out: % activity, solo bromoxynil",45%
same,inhibition at 125 g/ha,"Chenopodium album; Chenopodium album, post-emergence, 480 h, 125 gai/ha, 20 DAT, read-out: % activity, solo bromoxynil",85%
same,inhibition at 250 g/ha,"Chenopodium album; Chenopodium album, post-emergence, 480 h, 250 gai/ha, 20 DAT, read-out: % activity, solo bromoxynil",95%
same,inhibition at 10.5 g/ha,"Ipomoea hederacea; Ipomoea hederacea, post-emergence, 480 h, 10.5 gai/ha, 20 DAT, read-out: % activity, solo bromoxynil",65%
same,inhibition at 21 g/ha,"Ipomoea hederacea; Ipomoea hederacea, post-emergence, 480 h, 21 gai/ha, 20 DAT, read-out: % activity, solo bromoxynil",65%
same,inhibition at 125 g/ha,"Ipomoea hederacea; Ipomoea hederacea, post-emergence, 480 h, 125 gai/ha, 20 DAT, read-out: % activity, solo bromoxynil",72%
Cc1c(C(=O)c2cnn(C)c2O)ccc(S(C)(=O)=O)c1C1=NOCC1 [topramezone],"% activity, solo application topramezone",Amaranthus retroflexus; 25 gai/ha,98%
same,"% activity, solo application topramezone",Abutilon theoprasti; 6.25 gai/ha,93%
same,"% activity, solo application topramezone",Polygonum convolvulus; 6.25 gai/ha,25%
same,"% activity, solo application topramezone",Polygonum convolvulus; 12.5 gai/ha,25%
same,"% activity, solo application topramezone",Polygonum convolvulus; 25 gai/ha,68%
same,"% activity, solo application topramezone",Galium aparine; 6.25 gai/ha,70%
same,"% activity, solo application topramezone",Galium aparine; 12.5 gai/ha,75%
same,"% activity, solo application topramezone",Galium aparine; 25 gai/ha,70%
same,"% activity, solo application topramezone",Galium aparine; 50 gai/ha,85%
same,"% activity, solo application topramezone",Kochia scoparia; 6.25 gai/ha,20%
same,"% activity, solo application topramezone",Kochia scoparia; 12.5 gai/ha,43%
same,"% activity, solo application topramezone",Kochia scoparia; 25 gai/ha,75%
same,"% activity, solo application topramezone",Kochia scoparia; 50 gai/ha,90%
same,"% activity, solo application topramezone",Chenopodium album; 6.25 gai/ha,30%
same,"% activity, solo application topramezone",Chenopodium album; 12.5 gai/ha,55%
same,"% activity, solo application topramezone",Chenopodium album; 25 gai/ha,55%
same,"% activity, solo application topramezone",Chenopodium album; 50 gai/ha,73%
same,"% activity, solo application topramezone",Ipomoea hederacea; 6.25 gai/ha,23%
same,"% activity, solo application topramezone",Ipomoea hederacea; 12.5 gai/ha,55%
same,"% activity, solo application topramezone",Ipomoea hederacea; 25 gai/ha,75%
same,"% activity, solo application topramezone",Ipomoea hederacea; 50 gai/ha,88%
